Assay results taken from patent publication EP1611112B1, “ISOXAZOLE COMPOUNDS AS INHIBITORS OF HEAT SHOCK PROTEINS” (Vernalis (Cambridge) Limited, priority 2003, dated 2004).

biological target: T1, yeast HSP90 (Saccharomyces cerevisiae, UniProt P02829); assay: Malachite Green ATPase assay; type: biochemical; details: activity range
T1 construct: made in house; host or cells: E. coli
Description: The intrinsic ATPase activity of HSP90 may be measured using yeast HSP90 as a model system. The assay, based on the use of malachite green for the measurement of inorganic phosphate, was used to test the HSP90 inhibitory activity of some of the compounds of the Examples herein.
Malachite Green ATPase Assay
Chemicals are of the highest purity commercially available and all aqueous solutions are made up in AR water. Because of the need to minimise contamination with inorganic phosphate, precautions should be taken with solutions and apparatus used in the assays. Glassware and pH meters are rinsed with double distilled or deionised water before use and, wherever possible, plastic ware should be used. Gloves are worn for all procedures. • (1) Greiner 384-well (Greiner 781101) or Costar 384-well flat-bottomed polystyrene multiwell plates (VWR). • (2) Assay buffer of (a) 100mM Tris-HCI, pH 7.4, (b) 150mM KCI, (c) 6mM MgCl2. Stored at room temperature. • (3) 0.0812% (w/v) malachite green (M 9636, Sigma Aldrich Ltd., Poole, UK). Stored at room temperature. • (4) 2.32% (w/v) polyvinyl alcohol USP (P 1097, Sigma Aldrich Ltd, Poole, UK) in boiling water (see Comment 1), allowed to cool, and stored at room temperature. • (5) 5.72% (w/v) ammonium molybdate in 6 M hydrochloric acid. Stored at room temperature. • (6) 34% (w/v) sodium citrate. Stored at room temperature. • (7) 100mM ATP, disodium salt, special quality (47699, Sigma Aldrich). Stored at -20°C. • (8) E. coli expressed yeast HSP90 protein, purified >95% (see, e.g., Panaretou et al., 1998) and stored in 50uL aliquots at -80°C.
• 1. Dilute test compounds to 500µM in AR water (DMSO concentration will be 2.5%). Transfer 2.5µl of these compounds directly from the daughter plate to the assay plate, giving a final assay concentration of 100µM. […] Column 1 in the assay plate contains no compound, as a negative control. An additional row with no compound is also used as a background. • 2. Prepare ATP by diluting 100mM stock to 925µM with assay buffer, and aliquot 5µl of diluted ATP to each well including controls (final assay concentration 370µM). • 3. Add 5µl of buffer to background row. • 4. Dilute enzyme preparation to 1.05µM with assay buffer, and aliquot 5µl into each compound well and to the negative control column. • 5. Collect the reagents to the bottom of the well, cover plate with plate seal and incubate overnight at 37degC. • 6. First thing in the morning prepare the Malachite Green Reagent. Add 2parts of Malachite Green Solution, 1 part of Polyvinyl Alcohol Solution, 1 part of Ammonium Molybdate Solution, and 2 parts of AR water. • 7. Invert to mix, and leave for approximately 1 hour until the colour turns from brown to golden yellow. • 8. Add 40µl of Malachite Green Reagent to each well, allow 5 mins for colour to develop. • 9. Add 5µl of Sodium Citrate Reagent to each well (see comment 2) • 10. Re-cover with plate seal and shake on plate shaker for at least 15 mins. • 11. Measure Absorbance at 620nm using a suitable plate reader (e.g. Victor, Perkin Elmer Life Sciences, Milton Keynes, UK). Under these conditions, the control absorbance is 0.9 to 1.4, and the background is 0.2-0.35 giving a signal to noise ratio of -12. The Z' factor calculated from data obtained using these conditions is between 0.6 and 0.9.
• (1) The polyvinyl alcohol dissolves in boiling water with difficulty and stirring for 2-3 h is required. • (2) The time interval between addition of the malachite green reagent and the sodium citrate should be kept as short as possible in order to reduce the non-enzymatic hydrolysis of ATP. Once the sodium citrate is added, the colour is stable for up to 4 h at room temperature. • (3) Compounds can be added to the assay plates using a Biomek FX Robot (Beckman Coulter). […]

T1 sequence (P02829 whole entry): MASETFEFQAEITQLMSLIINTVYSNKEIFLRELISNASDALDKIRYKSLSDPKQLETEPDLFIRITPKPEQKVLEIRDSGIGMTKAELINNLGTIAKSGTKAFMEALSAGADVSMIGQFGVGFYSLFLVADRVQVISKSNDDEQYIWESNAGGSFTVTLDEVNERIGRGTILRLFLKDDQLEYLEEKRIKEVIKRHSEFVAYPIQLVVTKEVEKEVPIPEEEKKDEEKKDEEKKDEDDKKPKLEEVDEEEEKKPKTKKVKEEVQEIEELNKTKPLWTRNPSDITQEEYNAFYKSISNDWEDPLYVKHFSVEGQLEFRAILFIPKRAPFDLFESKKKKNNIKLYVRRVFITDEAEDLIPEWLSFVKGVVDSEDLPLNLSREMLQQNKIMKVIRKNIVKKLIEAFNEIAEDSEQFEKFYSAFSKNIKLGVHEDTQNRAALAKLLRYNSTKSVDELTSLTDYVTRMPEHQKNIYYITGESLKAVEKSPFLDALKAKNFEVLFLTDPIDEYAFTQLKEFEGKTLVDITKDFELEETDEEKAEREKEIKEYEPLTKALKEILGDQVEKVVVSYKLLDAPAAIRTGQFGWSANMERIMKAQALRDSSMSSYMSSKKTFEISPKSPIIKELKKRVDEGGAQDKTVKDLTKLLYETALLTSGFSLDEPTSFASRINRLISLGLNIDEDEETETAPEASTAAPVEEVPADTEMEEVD

**Q.** Which IC50 does the source give for `COc1ccc(-c2c(C)noc2-c2cc(C=O)c(O)cc2O)cc1` [Example 17] here?
**A.** > 50 µM

**Q.** With `Oc1cc(O)c(-c2oncc2-c2ccc(Br)cc2)cc1Cl` [Example 12a] as the compound, how does the IC50 read?
**A.** < 50 µM

**Q.** Which IC50 does the source give for `COc1ccc(-c2c(C)noc2-c2cc(-c3cccnc3)c(O)cc2O)cc1` [Example 12] here?
**A.** > 50 µM

**Q.** For `Cc1noc(-c2ccc(O)cc2O)c1-c1ccc2c(c1)OCCO2` [Example 5], which IC50 is on record?
**A.** > 50 µM

**Q.** Which IC50 does the source give for `Oc1ccccc1-c1oncc1-c1ccc2c(c1)OCCO2` [Example 7] here?
**A.** > 50 µM

**Q.** For `CCc1cc(-c2oncc2-c2ccc(OC)c(OC)c2)c(O)cc1O` [Example 11], which IC50 is on record?
**A.** < 50 µM

**Q.** With `Cc1noc(-c2cc(Cl)c(O)cc2O)c1-c1ccccc1` [Example 10] as the compound, how does the IC50 read?
**A.** < 50 µM

**Q.** For `Cc1cc(O)cc(O)c1-c1oncc1-c1csc(-c2ccccc2)n1` [Example 12c], which IC50 is on record?
**A.** < 50 µM

**Q.** Which IC50 does the source give for `Oc1ccc(Cl)cc1-c1oncc1-c1ccc2c(c1)OCCO2` [Example 6] here?
**A.** > 50 µM

tested on: not listed separately; assay: Sulforhodamine B (SRB) growth inhibition / growth arrest assay; type: cell-based; details: cell line not named
Procedure: A growth inhibition assay was also employed for the evaluation of candidate HSP90 inhibitors: • Assessment of cytotoxicity by Sulforhodamine B (SRB) assay: calculation of 50% inhibitory concentration (IC50).
• 1) Determine cell number by haemocytometer. • 2) Using an 8 channel multipipettor, add 160µl of the cell suspension (3600 cells/well or 2 x 10^4 cells/ml) to each well of a 96-well microtitre plate. • 3) Incubate overnight at 37°C in a CO2 incubator. […]
• 8) Tip off medium into sink and immerse plate slowly into 10% ice cold trichloroacetic acid (TCA). […] Leave for 15 mins. • 12)Wash off unbound SRB stain with four washes of 1% acetic acid. • 13)Dry plates in incubator. • 14)Solubilise SRB using 100µl of 10mM Tris base and put plates on plate shaker for 5 mins. • 15)Determine absorbance at 540nm using a plate reader. Calculate mean absorbance for quadruplicate wells and express as a percentage of value for control, untreated wells. • 16)Plot % absorbance values versus log drug concentration and determine the IC50. […]

**Q.** Which IC50 does the source give for `COc1ccc(-c2c(C)noc2-c2cc(Br)c(O)cc2O)cc1` [Example 2, 4-Bromo-6-[4-(4-methoxy-phenyl)-3-methyl-isoxazol-5-yl]-benzene-1,3-diol] here?
**A.** < 50 µM

biological target: T2, human full-length HSP90 (Homo sapiens, UniProt P08238); assay: Fluorescence Polarisation Assay (displacement of fluorescein-labelled probe RBT0045864-FAM); type: binding; details: Fluorescence Polarisation Assay, activity range
T2 construct: E. coli expressed human full-length HSP90 protein; made in house; host or cells: E. coli
Description: A Fluorescence Polarization_assay was also employed for the evaluation of some of the compounds of the Examples:
Fluorescence polarization {also known as fluorescence anisotropy} measures the rotation of a fluorescing species in solution, where the larger molecule the more polarized the fluorescence emission.
When the fluorophore is excited with polarized light, the emitted light is also polarized. The molecular size is proportional to the polarization of the fluorescence emission.
Test compound is added to the assay plate, left to equilibrate and the anisotropy measured again. Any change in anisotropy is due to competitive binding of compound to HSP90, thereby releasing probe.
Stored at room temperature. • 3) BSA (bovine serum albumen) 10 mg/ml (New England Biolabs # B9001S) • 4) 20 mM probe in 100 % DMSO stock concentration. Stored in the dark at RT. Working concentration is 200 nM diluted in AR water and stored at 4 °C.
1) Add 100µl 1x buffer to wells 11A and 12A (=FP BLNK) 2) Prepare assay mix - all reagents are kept on ice with a lid on the bucket as the probe is light-sensitive.
This gives 2.5 mM {50x} stock cpd - assuming cpds 20 mM. • 4) Repeat for wells A2 to A10. Control in columns 11 and 12. • 5) Transfer 5 µl from row A to row B- not column 12. Mix well. • 6) Transfer 5 µl from row B to row C. […] Add 2 µl of 100mM standard cpd to wells B12 - H12 {is positive control } • 13)The Z' factor is calculated from zero controls and positive wells.

T2 sequence (P08238 whole entry): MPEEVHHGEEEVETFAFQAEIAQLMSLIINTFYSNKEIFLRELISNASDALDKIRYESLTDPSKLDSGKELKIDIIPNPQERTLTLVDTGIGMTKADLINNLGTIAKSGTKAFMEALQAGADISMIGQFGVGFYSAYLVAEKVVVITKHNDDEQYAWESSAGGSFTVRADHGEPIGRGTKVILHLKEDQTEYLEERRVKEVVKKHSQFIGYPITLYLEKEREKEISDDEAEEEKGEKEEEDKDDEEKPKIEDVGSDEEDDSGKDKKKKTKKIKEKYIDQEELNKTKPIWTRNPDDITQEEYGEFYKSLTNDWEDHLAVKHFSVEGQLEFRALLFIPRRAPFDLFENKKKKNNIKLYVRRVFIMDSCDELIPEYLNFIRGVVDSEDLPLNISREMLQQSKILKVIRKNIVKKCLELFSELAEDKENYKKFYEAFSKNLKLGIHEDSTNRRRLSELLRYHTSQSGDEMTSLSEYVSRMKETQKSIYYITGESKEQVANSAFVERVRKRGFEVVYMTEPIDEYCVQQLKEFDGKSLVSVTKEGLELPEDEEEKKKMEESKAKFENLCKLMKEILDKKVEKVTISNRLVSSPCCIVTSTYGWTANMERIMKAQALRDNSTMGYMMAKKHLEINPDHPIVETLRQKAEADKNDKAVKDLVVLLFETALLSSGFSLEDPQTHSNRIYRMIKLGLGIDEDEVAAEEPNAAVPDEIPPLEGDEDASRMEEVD

**Q.** Which IC50 does the source give for `COc1ccc(-c2c(C)noc2-c2cc(Br)c(O)cc2O)cc1` [Example 2, 4-Bromo-6-[4-(4-methoxy-phenyl)-3-methyl-isoxazol-5-yl]-benzene-1,3-diol] here?
**A.** < 10 µM
